# Assay results published in patent US10875829B1, “Azetidine derivatives useful as modulators of cortical catecholaminergic neurotransmission” (Integrative Research Laboratories Sweden AB, priority 2016, dated 2020).
# Counter-ions that a name gives are not always drawn. Marks after values point to notes of the source that are not given here.
# Columns and labels:
# [1] = tested on: human alpha 2A adrenergic receptor and/or the non-selective adrenergic alpha 2 receptor; test: In vitro binding studies, adrenergic alpha 2 receptors ([3H]RX 821002); design: species or system human and/or rat; details: concentration of 10 μM
# Method: (The measurement was performed as described in Langin, D., Lafontan, M., Stilling, M. R. and Paris, H. (1989), [3H]RX821002: a new tool for the identification of alpha2A-adrenoceptors, Eur. J. Pharmacol. 167: 95.)
# Cell membrane homogenates (48 μg protein) were incubated for 60 min at 22° C. with 1 nM [3H]RX 821002 in the absence or presence of the test compound in a buffer containing 50 mM Tris-HCl (pH 7.4), 2 mM MgCl2 and 1 mM EDTA. Nonspecific binding was determined in the presence of 100 μM (−)epinephrine. Following incubation, the samples were filtered rapidly under vacuum through glass fiber filters (GF/B, Packard) presoaked with 0.3% PEI and rinsed several times with ice-cold 50 mM Tris-HCl using a 96-sample cell harvester (Unifilter, Packard). The filters were dried then counted for radioactivity in a scintillation counter (Topcount, Packard) using a scintillation cocktail (Microscint 0, Packard).
# The results are expressed as a percent inhibition of the control radioligand specific binding.
# (antagonist radioligand). Membrane homogenates (rat) of cerebral cortex (160 μg protein) were incubated for 60 min at 22° C. with 0.5 nM [3H]RX 821002 in the absence or presence of the test compound in a buffer containing 50 mM Tris-HCl (pH 7.4), 2 mM MgCl2 and 1 mM EDTA. Nonspecific binding was determined in the presence of 100 μM (−)epinephrine. Following incubation, the samples were filtered rapidly under vacuum through glass fiber filters (GF/B, Packard) presoaked with 0.3% PEI and rinsed several times with ice-cold 50 mM Tris-HCl using a 96-sample cell harvester (Unifilter, Packard). The filters were dried then counted for radioactivity in a scintillation counter (Topcount, Packard) using a scintillation cocktail (Microscint 0, Packard). The results are expressed as a percent inhibition of the control radioligand specific binding. The standard reference compound was yohimbine, which was tested in each experiment at several concentrations to obtain a competition curve from which its IC50 was calculated.
# [2] = tested on: Arc mRNA; test: m-RNA analysis: tissue levels of Arc in brain regions; format: in vivo, rats; details: 33 μmol/kg s.c., 65 min before sacrifice, control saline, n=5
# Method: Sesack et al. (Anatom Substr Glut-Dopamine Inter. Annals of NY AcadSci, 2003, 1003; 36-52) discloses that the dopaminergic systems of the brain interact strongly with central glutamate neurotransmission. To investigate potential effects of compounds as disclosed herein on cortical and striatal NMDA type glutamate receptor related synaptic signaling, Arc mRNA induction was assessed upon acute administration. Arc (Arc/Arg3.1-activity regulated cytoskeleton-associated protein/activity-regulated gene 3.1; (Link W et al., Proc Natl Acad Sci, USA, 1995, 92; 5734-8 and Lyford G L et al., Neuron, 1995, 14; 433-45), is an immediate early gene (IEG), induced by synaptic activity, whose expression and localization at synaptic sites is triggered specifically by NMDA receptor activation and strongly related to neural plasticity (Steward and Worley, Neuron, 2001, 30; 227-40, Kawashima et al., PNAS, 2009, 106(1); 316-21 and Bramham et al., Exp Brain Res, 2010, 200; 125-40).
# Animals were killed 60 min after the injection of the drugs by decapitation and the brains were dissected into […] different areas: Limbic system (containing nucleus accumbens, most parts of the olfactory tubercle, ventral pallidum), striatum, frontal cortex, hippocampus and the remaining cortex.
# Total RNA was prepared by the guanidin isothiocyanate method (Chomczynski P and Sacchi N, Anal Biochem, 1987, 162(1); 156-9). RNA pellets were solved in RNAse-free water and stored at −80° C. The sample concentration was determined spectrophotometrically by a NanoDrop ND1000 (Saveen Werner). A quality indicator number and an integrity number of r-RNA were measured with an Experion (Bio-rad).
# A two-step reversed transcription was performed by using a SuperScript III kit (Invitrogen). 1 μg of total RNA was reverse transcribed with 5 μl 2XRT Reaction Mix, 1 μl RT Enzyme Mix, in a total volume adjusted to 10 μl with DEPC-treated water. 1 U of E. coli RNase H was added. c-DNA was diluted 40 times and stored at −20° C.
# Three sequences (one gene of interest and two reference genes) were amplified together in a triplex PCR-reaction. For real-time PCR measurements: 5 μl of c-DNA reaction was amplified in a 20 μl reaction mixture containing 10 μl PerfeCta Multiplex qPCR Supermix (Quanta, VWR), 3.5 μl RNAse-free water, 0.15 μM of each primer and 0.1 μM of each probe. Real-time PCR was measured on CFX96 (Bio-rad) using the following settings for all genes: 3 min pre-incubation at 95° C. followed by 40 cycles of denaturation at 95° C. for 15 s, annealing and elongation at 60° C. for 1 minute.
# Reference genes are HPRT and cyclophilin.
# Compounds and saline solution (control) as indicated above were administered s.c. 65 min before sacrificing the animals. Results are presented as percent of control means±SEM. Statistical significance was assessed using Student's t-test (2 tailed) vs controls. * denotes p<0.05, ** p<0.01, n=5, *** p<0.001, n=5.
# Correct PCR products are confirmed by agarose gel electrophoresis (2%) PCR products are purified with PCR purification kit from Qiagen (Valencia, Calif., USA). All genes are sequenced at MWG, Germany. The amounts of gene of interests are normalized with the two reference genes HPRT and cyclophilin A with the equation delta-delta CT.
# [3] = tested on: SERT, NET and/or DAT; test: Radioligand binding assays at the monoamine transporters, general statements; design: species or system human; details: concentration of each tested compound 10 μM
# Source text: A serotonin-norepinephrine-dopamine reuptake inhibitor (SNDRI), also known as a triple reuptake inhibitor (TRI), is a type of drug that acts as a combined reuptake inhibitor of the monoamine neurotransmitters serotonin, norepinephrine, and dopamine. It does this by concomitantly inhibiting the serotonin transporter (SERT), norepinephrine transporter (NET), and dopamine transporter (DAT), respectively. Inhibition of the reuptake of these neurotransmitters increases their extracellular concentrations and, therefore, results in an increase in serotonergic, adrenergic, and dopaminergic neurotransmission across the brain. However, the use of triple re-uptake inhibitors (especially the inhibition of DAT) in humans are of potential concern due to abuse liability. Cocaine is the most well-known triple-uptake inhibitor and is widely encountered as a drug of abuse. […] One assay to measure affinity of said compounds as described herein may be the percent inhibition from radioligand binding assay using cells expressing human transporters and receptors (Table 5), wherein the concentration of each tested compound in such assay is 10 μM. Alternatively other assays known to the skilled person may be used to measure the affinity of said compounds, wherein the concentration of each tested compound in such assay is 10 μM.
# Each compound was tested in a single concentration at 1.0 E-5 M and in duplicate. […]
Compound,inhibition of the binding of a radioactively labeled ligand [1],Arc frontal cortex ± SEM [2],Arc striatum ± SEM [2],"affinity to SERT, NET and/or DAT (percent inhibition) [3]"
"Fc1cccc(OC2CNC2)c1F [Example 1A, 3-(2,3-difluorophenoxy)azetidine hydrochloric acid salt]",more than 93%,236 ± 9*** % of control means,149 ± 11* % of control means,
"Fc1cc(F)c(F)c(OC2CNC2)c1 [Example 2, 3-(2,3,5-trifluorophenoxy)azetidine hydrochloric acid salt]",,96 ± 20 % of control means,104 ± 12 % of control means,
"Fc1cc(F)c(F)c(OC2CNC2)c1F [Example 3, 3-(2,3,5,6-tetrafluorophenoxy)-azetidine hydrochloric acid salt]",more than 93%,149 ± 11** % of control means,141 ± 9.0** % of control means,
"Fc1ccc(F)c(OC2CNC2)c1F [Example 20, 3-(2,3,6-trifluorophenoxy)azetidine hydrochloric acid salt]",more than 93%,,,
"Fc1cc(F)cc(OC2CNC2)c1.O=C(O)C(O)C(O)C(=O)O [Example 52B, 3-(3,5-difluorophenoxy)azetidine (+)-tartaric acid salt]",,148 ± 6.9** % of control means,106 ± 7.1 % of control means,
"Fc1cc(F)cc(OC2CNC2)c1 [Example 52C, 3-(3,5-difluorophenoxy)azetidine hydrochloric acid salt]",more than 93%,,,
"Clc1ccc(OC2CNC2)cc1Cl [Reference Compound, 3-(3,4-dichlorophenoxy)azetidine hydrochloric acid salt, reference compound]",,,,higher than 75%
